Read-outs that look alike come from different tables or passages of the source. Marks after values point to notes of the source that are not given here.
Tested on: patients with abnormal levels of lipid spectrum
[1] = Visit 1 (baseline), 4000 mg vitamin PP daily for 5 days
[2] = Visit 2 (5 days of supplementation), 4000 mg vitamin PP daily
[3] = Visit 3 (10 days after last dose), 15 days, 4000 mg vitamin PP daily for 5 days
[4] = Visit 4 (30 days after last dose), 35 days, 4000 mg vitamin PP daily for 5 days

What does the source list for `O=C(O)c1cccnc1` [PP, vitamin PP]?
patients dropped out due to side effects (3rd day of the trial): 1 patients; effect on lipid spectrum (in words) (4000 mg vitamin PP daily, 5 days): quickly lowers TC and LDL, without significantly changing the rest of the lipid spectrum parameters; patients dropped out due to side effects (4th day of the trial): 3 patients; patients dropped out due to adverse effects (PP group, 4000 mg vitamin PP daily, 5 days): 12%; HDL (high density lipoproteins) [1]: 0.98 mmol/L; LDL (low density lipoproteins) [1]: 3.13 mmol/L; La (lipoprotein a) [1]: 36.75 mg/dL; TC (total cholesterol) [1]: 6.77 mmol/L; TG (triglycerides) [1]: 2.35* mmol/L; VLDL (very low density lipoproteins) [1]: 1.14 mmol/L; HDL (high density lipoproteins) [2]: 0.99 mmol/L; LDL (low density lipoproteins) [2]: 2.58 mmol/L; La (lipoprotein a) [2]: 38.39 mg/dL; TC (total cholesterol) [2]: 5.99 mmol/L; TG (triglycerides) [2]: 2.40 mmol/L; VLDL (very low density lipoproteins) [2]: 1.11 mmol/L; HDL (high density lipoproteins) [3]: 0.95 mmol/L; LDL (low density lipoproteins) [3]: 2.97 mmol/L; La (lipoprotein a) [3]: 37.40 mg/dL; TC (total cholesterol) [3]: 6.12 mmol/L; TG (triglycerides) [3]: 2.33 mmol/L; VLDL (very low density lipoproteins) [3]: 1.15 mmol/L; HDL (high density lipoproteins) [4]: 0.99 mmol/L; LDL (low density lipoproteins) [4]: 3.18 mmol/L; La (lipoprotein a) [4]: 37.29 mg/dL; TC (total cholesterol) [4]: 6.81 mmol/L; TG (triglycerides) [4]: 2.37 mmol/L; VLDL (very low density lipoproteins) [4]: 1.16 mmol/L; duration of efficacy (after 5-day course of 4000 mg vitamin PP daily): ≤ 10 days; patients dropped out due to side effects (second day of the trial): 2 patients

— patent US11213542B2, “Method and agent for lowering total cholesterol levels and for improving blood lipid spectrum composition” (BIOGIX, INC., priority 2018, dated 2022)
